These are literature values, as cited in US20080248135A1, “Combination Therapy for Otitis with Antiseptic and pH Adjustment” (Collegium Pharmaceutical, Inc., priority 2006, published 2008).

The subject of data set [1] is P. aeruginosa. Conditions: background statement.
Data set [2] deals with Aspergillus. Conditions: antifungal creams; background statement.

As for `CC1(C)S[C@@H]2[C@H](NC(=O)[C@H](N)c3ccccc3)C(=O)N2[C@H]1C(=O)O` [ampicillin], the “Activity against P. aeruginosa” value in data set [1] is reported as “no activity”.
Consider `N[C@@H](C(=O)N[C@@H]1C(=O)N2C(C(=O)O)=C(Cl)CS[C@H]12)c1ccccc1` [cefaclor], for which the “Activity against P. aeruginosa” value in data set [1] is reported as “no activity”.
For the compound `CC1=C(C(=O)O)N2C(=O)[C@@H](NC(=O)[C@H](N)c3ccccc3)[C@H]2SC1` [cephalexin], in data set [1], the “Activity against P. aeruginosa” value is “no activity”.
As for `Clc1ccccc1C(c1ccccc1)(c1ccccc1)n1ccnc1` [clotrimazole], in data set [2], the “Effectiveness against Aspergillus” value is “not effective”.
As to `II` [iodine, elemental iodine (I2)], the “Saturating concentration of iodine in water” value was “ca. 0.0013 M”.
In the case of `C[C@@H]1[C@H](O)[C@@H](C)/C=C/C=C/CC/C=C/C=C/C=C/C=C/C(O[C@H]2O[C@H](C)[C@@H](O)[C@H](N)[C@@H]2O)CC2O[C@](O)(CC(O)C(O)CCC(O)CC(O)CC(O)CC(=O)O[C@H]1C)CC(O)C2C(=O)O` (stereo partly shown) [nystatin], in data set [2], the “Effectiveness against Aspergillus” value is recorded as “not effective”.
For trimethoprim-sulfamethoxazole, in data set [1], the “Activity against P. aeruginosa” value is “no activity”.
